From PubChem BioAssay AID1259407 (Chemical Carcinogenesis Research Information System (CCRIS), 2018)
Calls of active or inactive are those of the source. No rule for the calls is given here.

System: CCRIS mutagenicity, Ames/micronucleus/aberration tests
Assay: CCRIS mutagenicity studies
[1] = Test System: AMES SALMONELLA TYPHIMURIUM, Strain/Indicator: TA98, Metabolic Activation: NONE, Method: STANDARD PLATE
[2] = Test System: AMES SALMONELLA TYPHIMURIUM, Strain/Indicator: TA100, Metabolic Activation: NONE, Method: STANDARD PLATE
[3] = Test System: AMES SALMONELLA TYPHIMURIUM, Strain/Indicator: TA100, Metabolic Activation: RAT, LIVER, S-9, AROCLOR 1254, Method: STANDARD PLATE
[4] = Test System: AMES SALMONELLA TYPHIMURIUM, Strain/Indicator: TA1535, Metabolic Activation: NONE, Method: STANDARD PLATE
[5] = Test System: AMES SALMONELLA TYPHIMURIUM, Strain/Indicator: TA1537, Metabolic Activation: NONE, Method: STANDARD PLATE
[6] = Test System: AMES SALMONELLA TYPHIMURIUM, Strain/Indicator: TA98, Metabolic Activation: NONE, Method: PREINCUBATION
[7] = Test System: AMES SALMONELLA TYPHIMURIUM, Strain/Indicator: TA100, Metabolic Activation: NONE, Method: PREINCUBATION

## Cc1ccc(NCCO)cc1O
[1]
  mutagenic call: inactive; negative
Test System: AMES SALMONELLA TYPHIMURIUM, Strain/Indicator: TA98, Metabolic Activation: RAT, LIVER, S-9, AROCLOR 1254, Method: STANDARD PLATE
  mutagenic call: inactive; negative
[2]
  mutagenic call: inactive; negative
[3]
  mutagenic call: inactive; negative
[4]
  mutagenic call: inactive; negative
Test System: AMES SALMONELLA TYPHIMURIUM, Strain/Indicator: TA1535, Metabolic Activation: RAT, LIVER, S-9, AROCLOR 1254, Method: STANDARD PLATE
  mutagenic call: inactive; negative
[5]
  mutagenic call: inactive; negative
Test System: AMES SALMONELLA TYPHIMURIUM, Strain/Indicator: TA1537, Metabolic Activation: RAT, LIVER, S-9, AROCLOR 1254, Method: STANDARD PLATE
  mutagenic call: inactive; negative
Test System: AMES SALMONELLA TYPHIMURIUM, Strain/Indicator: TA1538, Metabolic Activation: NONE, Method: STANDARD PLATE
  mutagenic call: inactive; negative
Test System: AMES SALMONELLA TYPHIMURIUM, Strain/Indicator: TA1538, Metabolic Activation: RAT, LIVER, S-9, AROCLOR 1254, Method: STANDARD PLATE
  mutagenic call: inactive; negative
Test System: MOUSE LYMPHOMA, Strain/Indicator: L5178Y (TK+/TK-), Metabolic Activation: NONE, Method: SUSPENSION/PLATE
  mutagenic call: inactive; negative
Test System: UDS HUMAN CELLS, Strain/Indicator: THY INCORP, Metabolic Activation: NONE, Method: LIQUID SCINTILLATION COUNTING
  mutagenic call: inactive; negative
Test System: UDS HUMAN CELLS, Strain/Indicator: THY INCORP, Metabolic Activation: RAT, LIVER, S-9, PHENOBARBITAL AND BETA-NAPHTHOFLAVONE, Method: LIQUID SCINTILLATION COUNTING
  mutagenic call: inactive; negative

## CCCCN(CC(O)c1ccc(O)cc1)N=O (configuration not stated)
[6]
  mutagenic call: inactive; negative
Test System: AMES SALMONELLA TYPHIMURIUM, Strain/Indicator: TA98, Method: PREINCUBATION
  mutagenic call: inactive; negative
[7]
  mutagenic call: inactive; negative
Test System: AMES SALMONELLA TYPHIMURIUM, Strain/Indicator: TA100, Method: PREINCUBATION
  mutagenic call: inactive; negative

## [NH-]CCC(=O)[N-][C@@H](Cc1cnc[nH]1)C(=O)[O-].[Zn+2]
Test System: AMES SALMONELLA TYPHIMURIUM, Strain/Indicator: SD100, Metabolic Activation: NONE, Method: PREINCUBATION
  mutagenic call: inactive; negative
Test System: AMES SALMONELLA TYPHIMURIUM, Strain/Indicator: SD100, Metabolic Activation: RAT, LIVER, S-9, AROCLOR 1254, Method: PREINCUBATION
  mutagenic call: inactive; negative
Test System: AMES SALMONELLA TYPHIMURIUM, Strain/Indicator: TM677, Metabolic Activation: NONE, Method: PREINCUBATION
  mutagenic call: inactive; negative
Test System: AMES SALMONELLA TYPHIMURIUM, Strain/Indicator: TM677, Metabolic Activation: RAT, LIVER, S-9, AROCLOR 1254, Method: PREINCUBATION
  mutagenic call: inactive; negative
Test System: E. COLI, Strain/Indicator: WP2 UVRA, Metabolic Activation: NONE, Method: PREINCUBATION
  mutagenic call: inactive; negative
Test System: E. COLI, Strain/Indicator: WP2 UVRA, Metabolic Activation: RAT, LIVER, S-9, AROCLOR 1254, Method: PREINCUBATION
  mutagenic call: inactive; negative

## CC1CCCO1 (configuration not stated)
Test System: AMES SALMONELLA TYPHIMURIUM, Strain/Indicator: TA98, Metabolic Activation: HAMSTER LIVER S-9, AROCLOR 1254, Method: STANDARD PLATE
  mutagenic call: inactive; negative
[1]
  mutagenic call: inactive; negative
Test System: AMES SALMONELLA TYPHIMURIUM, Strain/Indicator: TA98, Metabolic Activation: RAT LIVER S-9, AROCLOR 1254, Method: STANDARD PLATE
  mutagenic call: inactive; negative
Test System: AMES SALMONELLA TYPHIMURIUM, Strain/Indicator: TA100, Metabolic Activation: HAMSTER LIVER S-9, AROCLOR 1254, Method: STANDARD PLATE
  mutagenic call: inactive; negative
[2]
  mutagenic call: inactive; negative
Test System: AMES SALMONELLA TYPHIMURIUM, Strain/Indicator: TA100, Metabolic Activation: RAT LIVER S-9, AROCLOR 1254, Method: STANDARD PLATE
  mutagenic call: inactive; negative
Test System: AMES SALMONELLA TYPHIMURIUM, Strain/Indicator: TA102, Metabolic Activation: HAMSTER LIVER S-9, AROCLOR 1254, Method: STANDARD PLATE
  mutagenic call: inactive; negative
Test System: AMES SALMONELLA TYPHIMURIUM, Strain/Indicator: TA102, Metabolic Activation: NONE, Method: STANDARD PLATE
  mutagenic call: inactive; negative
Test System: AMES SALMONELLA TYPHIMURIUM, Strain/Indicator: TA102, Metabolic Activation: RAT LIVER S-9, AROCLOR 1254, Method: STANDARD PLATE
  mutagenic call: inactive; negative
Test System: AMES SALMONELLA TYPHIMURIUM, Strain/Indicator: TA1535, Metabolic Activation: HAMSTER LIVER S-9, AROCLOR 1254, Method: STANDARD PLATE
  mutagenic call: inactive; negative
[4]
  mutagenic call: inactive; negative
Test System: AMES SALMONELLA TYPHIMURIUM, Strain/Indicator: TA1535, Metabolic Activation: RAT LIVER S-9, AROCLOR 1254, Method: STANDARD PLATE
  mutagenic call: inactive; negative
Test System: AMES SALMONELLA TYPHIMURIUM, Strain/Indicator: TA1537, Metabolic Activation: HAMSTER LIVER S-9, AROCLOR 1254, Method: STANDARD PLATE
  mutagenic call: inactive; negative
[5]
  mutagenic call: inactive; negative
Test System: AMES SALMONELLA TYPHIMURIUM, Strain/Indicator: TA1537, Metabolic Activation: RAT LIVER S-9, AROCLOR 1254, Method: STANDARD PLATE
  mutagenic call: inactive; negative
Test System: Mouse lymphoma, Strain/Indicator: L5178Y (tk+/tk-), Metabolic Activation: None, Method: Suspension/plate
  mutagenic call: inactive; negative
Test System: Mouse lymphoma, Strain/Indicator: L5178Y (tk+/tk-), Metabolic Activation: Rat, Liver, S-9, Aroclor 1254, Method: Suspension/plate
  mutagenic call: inactive; inconclusive (previous evaluation negative)

## O=[N+]([O-])c1cnc(CO)n1CCO
[2]
  mutagenic call: active; positive
[3]
  mutagenic call: active; positive

## Cc1cc2nc3c(ccc4ccccc43)c(C)c2cc1C
Test System: AMES SALMONELLA TYPHIMURIUM, Strain/Indicator: TA97A, Metabolic Activation: NONE, Method: PREINCUBATION
  mutagenic call: active; positive
[6]
  mutagenic call: inactive; negative
[7]
  mutagenic call: inactive; negative
Test System: AMES SALMONELLA TYPHIMURIUM, Strain/Indicator: TA102, Metabolic Activation: NONE, Method: PREINCUBATION
  mutagenic call: active; positive

## O=NN(C1CCCCC1)C1CCCCC1
End Point: IN VITRO MICRONUCLEUS, Test System: HUMAN LYMPHOCYTES, Metabolic Activation: NONE
  mutagenic call: active; positive

## C1CN(SSN2CCOCC2)CCO1
[6]
  mutagenic call: inactive; negative
Test System: AMES SALMONELLA TYPHIMURIUM, Strain/Indicator: TA98, Metabolic Activation: RAT LIVER S-9, PHENOBARBITAL AND BETA-NAPHTHOFLAVONE, Method: PREINCUBATION
  mutagenic call: inactive; negative
[7]
  mutagenic call: inactive; negative
Test System: AMES SALMONELLA TYPHIMURIUM, Strain/Indicator: TA100, Metabolic Activation: RAT LIVER S-9, PHENOBARBITAL AND BETA-NAPHTHOFLAVONE, Method: PREINCUBATION
  mutagenic call: inactive; negative
Test System: AMES SALMONELLA TYPHIMURIUM, Strain/Indicator: TA1535, Metabolic Activation: NONE, Method: PREINCUBATION
  mutagenic call: inactive; negative
Test System: AMES SALMONELLA TYPHIMURIUM, Strain/Indicator: TA1535, Metabolic Activation: RAT LIVER S-9, PHENOBARBITAL AND BETA-NAPHTHOFLAVONE, Method: PREINCUBATION
  mutagenic call: inactive; negative
Test System: AMES SALMONELLA TYPHIMURIUM, Strain/Indicator: TA1537, Metabolic Activation: NONE, Method: PREINCUBATION
  mutagenic call: inactive; negative
Test System: AMES SALMONELLA TYPHIMURIUM, Strain/Indicator: TA1537, Metabolic Activation: RAT LIVER S-9, PHENOBARBITAL AND BETA-NAPHTHOFLAVONE, Method: PREINCUBATION
  mutagenic call: inactive; negative
Test System: AMES SALMONELLA TYPHIMURIUM, Strain/Indicator: TA1538, Metabolic Activation: NONE, Method: PREINCUBATION
  mutagenic call: inactive; negative
Test System: AMES SALMONELLA TYPHIMURIUM, Strain/Indicator: TA1538, Metabolic Activation: RAT LIVER S-9, PHENOBARBITAL AND BETA-NAPHTHOFLAVONE, Method: PREINCUBATION
  mutagenic call: inactive; negative
Test System: E.COLI, Strain/Indicator: WP2UVRA, Metabolic Activation: NONE, Method: PREINCUBATION
  mutagenic call: inactive; negative
Test System: E.COLI, Strain/Indicator: WP2UVRA, Metabolic Activation: RAT LIVER S-9, PHENOBARBITAL AND BETA-NAPHTHOFLAVONE, Method: PREINCUBATION
  mutagenic call: inactive; negative

## OCCS
[7]
  mutagenic call: inactive; negative

## CCCCCCCCCCCCN
End Point: In vitro Chromosomal aberrations, Test System: CHO Cells, Metabolic Activation: None
  mutagenic call: inactive; negative; cytotoxic at 12 and 18 ug/ml
End Point: In vitro Chromosomal aberrations, Test System: CHO Cells, Metabolic Activation: Rodent S-9
  mutagenic call: inactive; negative; cytotoxic at 12 and 18 ug/ml
